In PubChem BioAssay AID651833 (Broad Institute, 2012):
Several values for one entry are separate records, joined by “and”; a condition that tells them apart may be missing. Equal entries are not always repeated. Activity calls are given as the source filed them.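 The calls were made as follows: active = fitted curve reaching 40% activation at or below the sample's highest valid tested dose; inconclusive = flat fit between 30% and 70%, or poor fit; inactive = the rest, including opposite-direction activity.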

These compounds were tested against Kelch-like ECH-associated protein 1 (Homo sapiens) + Nuclear factor erythroid 2-related factor 2 (Homo sapiens) (UniProt Q14145+Q16236) (assay: Nrf2 nuclear translocation activators in cells, dose response, orthogonal assay for Keap1-Nrf2 interaction inhibitor project, PathHunter, U2OS cells, dry powder (AID 651833)). Details: beta-gal luminescence, 3 h, at 38 µM (top of the series).
Kelch-like ECH-associated protein 1 (Homo sapiens) + Nuclear factor erythroid 2-related factor 2 (Homo sapiens), sequence (Q14145 whole entry, looked up): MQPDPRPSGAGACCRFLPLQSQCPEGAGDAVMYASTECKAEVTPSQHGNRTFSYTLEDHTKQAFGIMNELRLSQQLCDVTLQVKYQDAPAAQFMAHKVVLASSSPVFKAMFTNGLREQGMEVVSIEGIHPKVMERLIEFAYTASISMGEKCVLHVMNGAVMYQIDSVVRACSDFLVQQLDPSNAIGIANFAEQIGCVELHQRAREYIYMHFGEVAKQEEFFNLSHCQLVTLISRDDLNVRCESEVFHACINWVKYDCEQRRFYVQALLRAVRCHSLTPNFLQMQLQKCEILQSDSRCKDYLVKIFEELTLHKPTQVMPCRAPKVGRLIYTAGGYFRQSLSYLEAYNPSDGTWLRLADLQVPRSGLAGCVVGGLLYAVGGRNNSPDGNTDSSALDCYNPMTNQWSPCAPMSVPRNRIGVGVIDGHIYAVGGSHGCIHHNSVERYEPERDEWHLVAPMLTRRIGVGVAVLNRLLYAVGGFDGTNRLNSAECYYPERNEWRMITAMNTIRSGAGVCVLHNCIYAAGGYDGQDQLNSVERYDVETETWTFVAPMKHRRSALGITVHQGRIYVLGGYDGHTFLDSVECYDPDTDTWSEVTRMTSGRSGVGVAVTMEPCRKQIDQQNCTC
Kelch-like ECH-associated protein 1 (Homo sapiens) + Nuclear factor erythroid 2-related factor 2 (Homo sapiens), sequence (Q16236 whole entry, looked up): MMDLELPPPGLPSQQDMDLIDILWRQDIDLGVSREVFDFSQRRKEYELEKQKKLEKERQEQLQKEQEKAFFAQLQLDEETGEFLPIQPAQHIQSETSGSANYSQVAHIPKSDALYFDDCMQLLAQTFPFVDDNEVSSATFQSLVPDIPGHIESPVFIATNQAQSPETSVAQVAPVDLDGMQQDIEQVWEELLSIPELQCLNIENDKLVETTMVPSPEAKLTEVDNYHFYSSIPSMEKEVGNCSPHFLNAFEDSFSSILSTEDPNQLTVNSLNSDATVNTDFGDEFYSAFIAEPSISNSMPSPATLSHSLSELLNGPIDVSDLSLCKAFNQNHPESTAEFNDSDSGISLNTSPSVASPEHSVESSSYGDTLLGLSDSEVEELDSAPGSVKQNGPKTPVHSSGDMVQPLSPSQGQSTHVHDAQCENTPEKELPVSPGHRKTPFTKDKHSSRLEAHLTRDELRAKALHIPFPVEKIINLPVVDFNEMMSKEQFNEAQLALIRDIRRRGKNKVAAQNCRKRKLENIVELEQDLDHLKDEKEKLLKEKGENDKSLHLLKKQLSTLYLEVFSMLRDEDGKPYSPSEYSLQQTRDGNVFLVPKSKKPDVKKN

Compound | activation
O=C(O)/C=C\C(=O)N1CCc2ccccc2C1CN1C(=O)c2ccccc2C1=O (centres undefined) | 13% (inactive)
COc1ccccc1CCNC(=O)[C@@H]1c2ccccc2CCN1C(=O)C1CCCCC1C(=O)O (some centres undefined) | -2.36% (inactive) and -1.69% (inactive)
O=C(O)C1CCCCC1C(=O)Nc1ccccc1CN1C(=O)c2ccccc2C1=O (centres undefined) | -2.72% (inactive)
O=C(O)C1CCCCC1C(=O)N1CCc2ccccc2C1CN1C(=O)Cc2ccccc2C1=O (centres undefined) | 8.47% (inactive)
O=C(NC[C@@H]1c2ccccc2CCN1C(=O)[C@@H]1CCCC[C@@H]1C(=O)O)c1ccc(CN2CCOCC2)cc1 | 2.86% (inactive)
Cc1ccc(S(=O)(=O)NC[C@@H]2c3ccccc3CCN2C(=O)[C@@H]2CCCC[C@@H]2C(=O)O)c(C)c1 | 4.66% (inactive)
O=C(O)C1CCCCC1C(=O)N1CCCCC1CN1C(=O)c2ccccc2C1=O (centres undefined) | -1.78% (inactive)
CCOC(=O)C(C(=O)OCC)c1nc(NS(=O)(=O)c2c(C)cc(C)cc2C)c2ccccc2n1 | 1.28% (inactive)
COC(=O)C1CCCCC1C(=O)N1CCc2ccccc2C1CN1C(=O)c2ccccc2C1=O (centres undefined) | 1.27% (inactive)
O=C(O)[C@@H]1CCCN1C(=O)N1CCc2ccccc2[C@H]1CN1C(=O)c2ccccc2C1=O | 5.41% (inactive)
O=C(O)[C@H]1CCCC[C@H]1C(=O)NC(CN1C(=O)c2ccccc2C1=O)c1ccccc1 (some centres undefined) | -1.98% (inactive)
Cc1ccc(S(=O)(=O)NC(=O)[C@@H]2c3ccccc3CCN2C(=O)[C@@H]2CCCC[C@@H]2C(=O)O)cc1 | 6.05% (inactive) and 8.58% (inactive)
Cc1cc(C)c(S(=O)(=O)Nc2nc(N(C)C)nc3ccccc23)c(C)c1 | 2.02% (inactive)
O=C(O)C1CCCCC1C(=O)N1CCc2ccccc2C1CN1C(=O)[C@H]2CCCC[C@H]2C1=O (some centres undefined) | 4.38% (inactive)
O=C(O)[C@H]1CCCC[C@H]1C(=O)N1CCc2ccccc2[C@H]1CNc1nc(Cl)nc2ccccc12 | 5.4% (inactive)
COc1ccc(CCN=C2C=C(NS(=O)(=O)c3c(C)cc(C)cc3C)c3ccccc3C2=O)cc1 | 5.19% (inactive)
NC(=O)[C@H]1CCCC[C@H]1C(=O)N1CCc2ccccc2[C@H]1CN1C(=O)c2ccccc2C1=O | 4.54% (inactive)
O=C(O)CCC(=O)N1CCc2ccccc2C1CN1C(=O)c2ccccc2C1=O (centres undefined) | 1.36% (inactive)
C[C@H](NC(=O)C1CCCC[C@H]1C(=O)O)c1ccccc1 (mixture of isomers) | -4.29% (inactive)
O=S(=O)(Nc1nc(NCC2CCCCC2)nc2ccccc12)c1ccccc1 | 3.97% (inactive)

Compound | activation
O=C(O)c1ccccc1C(=O)N1CCc2ccccc2C1CN1C(=O)c2ccccc2C1=O (centres undefined) | 4.54% (inactive)
O=C(O)[C@H]1CCCC[C@H]1C(=O)N1CCc2ccccc2[C@H]1CNS(=O)(=O)c1ccccc1 | 7.86% (inactive)
O=C(O)C1CCCCC1C(=O)NCC1c2ccccc2CCN1C(=O)Cc1ccccc1 (centres undefined) | 0.036% (inactive)
CCOC(=O)Cc1nc(NS(=O)(=O)c2c(C)cc(C)cc2C)c2ccccc2n1 | 8.62% (inactive)
COC(=O)[C@@H]1CCCC[C@@H]1C(=O)N1CCc2ccccc2[C@@H]1CN1C(=O)c2ccccc2C1=O | -2.15% (inactive)
O=C(Cc1ccccc1)NC[C@@H]1c2ccccc2CCN1C(=O)[C@@H]1CCCC[C@@H]1C(=O)O | 6.26% (inactive)
Cc1cc(C)c(S(=O)(=O)Nc2nc(NCCO)nc3ccccc23)c(C)c1 | 3.36% (inactive)
CC(C)CNc1nc(NS(=O)(=O)c2ccccc2)c2ccccc2n1 | 7.06% (inactive)
O=C(NCCO)c1ccccc1C(=O)NC[C@@H]1c2ccccc2CCN1C(=O)C1CCCCC1C(=O)O (some centres undefined) | 4.09% (inactive)
O=C(O)C1CCCCC1C(=O)N1CCc2ccccc2C1CN1C(=O)c2ccccc2S1(=O)=O (centres undefined) | 13.7% (inactive)
O=C(NCCCN1CCOCC1)c1ccccc1C(=O)NC[C@@H]1c2ccccc2CCN1C(=O)C1CCCCC1C(=O)O (some centres undefined) | 4.62% (inactive)
CCOC(=O)C(C(=O)OCC)c1cc(CN2C(=O)c3ccccc3C2=O)c2ccccc2n1 | 9.41% (inactive)
O=C(O)C1CCCCC1C(=O)N1CCc2ccccc2C1c1ccccc1 (centres undefined) | -2.53% (inactive)
O=C(O)CCCC(=O)N1CCc2ccccc2C1CN1C(=O)c2ccccc2C1=O (centres undefined) | 3.41% (inactive)
COC(=O)[C@H]1CCCC[C@H]1C(=O)N1CCc2ccccc2[C@H]1CN1C(=O)c2ccccc2C1=O | -2.1% (inactive)
O=C1c2ccccc2C(=O)N1C[C@@H]1c2ccccc2CCN1C(=O)OCc1ccccc1 | 1.45% (inactive)
O=C(O)c1ccccc1C(=O)NC[C@@H]1c2ccccc2CCN1C(=O)[C@@H]1CCCC[C@@H]1C(=O)O | 0.179% (inactive)
O=C(O)C1CCCCC1C(=O)N1CCc2ccccc2[C@H]1C(=O)NCCc1ccccc1 (some centres undefined) | 0.849% (inactive)
C=CC(=O)NC[C@@H]1c2ccccc2CCN1C(=O)[C@@H]1CCCC[C@@H]1C(=O)O | 6.96% (inactive)
